Results as given in US9974782B2, “Phosphodiesterase inhibitors and uses thereof” (THE TRUSTEES OF COLUMBIA UNIVERSITY IN THE CITY OF NEW YORK, priority 2008, dated 2018).

Tests used:
APP/PS1 mice [1] = assay: Morris water maze and probe trial (reference memory); format: in vivo, mouse
Description: To investigate sildenafil effect on long-term memory, reference memory was tested with a Morris water maze task that is known to require hippocampal function^A20 and is impaired after 6 months of age in the APP/PS1 mice^A12. Vehicle-treated transgenic mice needed more time to find the hidden platform after six sessions compared to WT littermates (FIG. 3C). […] This task is performed after the sixth hidden-platform session. The platform is removed from the water and the animals are allowed to search for 60 seconds. A mouse, knowing that the platform was in a certain position, will trawl repeatedly over that position looking for it. […] The amount of time spent in each quadrant of the maze can be used to evaluate the spatial bias of an animal's search pattern. Vehicle-treated WT mice spent more time in the target quadrant (TQ), where the platform had been located during training than in other quadrants, than in the adjacent quadrant to the right (AR), in the adjacent quadrant to the left (AL), or in the opposite quadrant (OQ) (FIG. 3D). Also, sildenafil improved the performance of the APP/PS1 mice which searched more in the quadrant where the platform had been located during training than in other quadrants (FIG. 3D). […] Sildenafil-treated WT mice remembered where the platform was the previous days and spent about the same time as vehicle-treated WT littermates. […] Behavioral Studies-Reference Memory: The task studied with the Morris water maze has been previously described^12. Briefly, mice were trained in 2 daily sessions (4 hours apart), each consisting of 3 trials (1 minute each), for 3 days. Time required to reach the hidden platform was recorded. To test the retention of the spatial memory, 4 probe trials were performed after the training with the platform […]. The maze was divided into 4 quadrants. The percent of time spent in the quadrant that previously contained the platform was recorded and analyzed with a video tracking system ([…] Image).

cGMP = details: sildenafil 3 mg/kg; cited from earlier work
[2] = test system: human Aβ40 and Aβ42 levels; assay: Determination of Aβ levels (ELISA of cerebral cortex)
APP/PS1 mice [3] = assay: Electrophysiological analysis (BST, LTP) of slices from mice previously treated i.p.; format: in vivo, mouse
Description: To add depth to the analysis of the functional changes that underlie the striking effects of sildenafil on APP/PS1 mice behavioral performance, synaptic function in hippocampi from the same mice was examined. […] The drug was administered either acutely or for 1 course of 3 week treatment. […] This dose yields concentrations of 2.5 μM cGMP in the hippocampus^[…]. […] Radial-arm water-maze (RAWM) was performed for 3 weeks. Then, the animals were sacrificed for electrophysiological recordings. To decide the time of administration of sildenafil in the acute experiments, a series of studies was performed in which the inhibitor was injected i.p. at 5 min before the electric shock or at 5 min before the first acquisition trial with the radial arm water maze. […] Thus, all the behavioral experiments on the acute effects of sildenafil reported in the result section were performed with injection after the training. Animals were sacrificed by cervical dislocation followed by decapitation. Hippocampi were quickly removed. Transverse hippocampal slices (400 μm) were cut and recorded according to standard procedures^[…]. For example, following cutting hippocampal slices were transferred to a recording chamber where they were maintained at 29° C. and perfused with artificial cerebrospinal fluid (ACSF) continuously bubbled with 95% O2 and 5% CO2. […] CA1 fEPSPs were recorded by placing both the stimulating and the recording electrodes in CA1 stratum radiatum. BST was assayed either by plotting the peak amplitude of the fiber volley against the slope of the fEPSP, or by plotting the stimulus voltages against slopes of fEPSP. For LTP experiments, a 15 min baseline was recorded every min at an intensity that evokes a response 35% of the maximum evoked response. […] Responses were recorded for 2 hrs after tetanization and measured as field-excitatory-post-synaptic potential (fEPSP) slope expressed as percentage of baseline. The results were expressed as mean±Standard Error Mean (SEM).

[4] = APP/PS1, 3 mg/Kg i.p. for 3 weeks at 3 months
[5] = APP/PS1 previously treated with sildenafil
[6] = WT previously treated with sildenafil
[7] = WT, 3 mg/Kg i.p. for 3 weeks at 3 months
[8] = treated at 3 months, tested at 6-8 months
[9] = 3-month-old APP/PS1, daily injections for 3 weeks
[10] = APP/PS1 at 7-10 months, injections for 3 weeks at 3 months
[11] = 3 mg/kg, treated at 3 months, tested at 6-8 months
[12] = 6-8 month-old APP/PS1, 3 mg/Kg i.p. for 3 weeks at 3 months of age
[13] = 6-8 month-old WT, 3 mg/Kg i.p. for 3 weeks at 3 months of age
[14] = treated at 3 months, tested at 6-8 months, APP/PS1

CCCc1nn(C)c2c(=O)[nH]c(-c3cc(S(=O)(=O)N4CCN(C)CC4)ccc3OCC)nc12 [sildenafil, 5-[2-ethoxy-5-(4-methyl-1-piperazinylsulphonyl)phenyl]-1-methyl-3-n-propyl-1,6-dihydro-7H-pyrazolo[4,3-d]pyrimidin-7-one]
minimum time needed to improve performance with the MWM (APP/PS1 mice [1]; 3 mg/kg): 2 weeks | minimum time needed to improve performance with the probe trial (APP/PS1 mice [1]; 3 mg/kg): 2 weeks | Morris water maze, time to find the hidden platform after six sessions (APP/PS1 mice [1]; [4]): 32.92 ± 3.50 s | time to platform as % of vehicle-treated WT mice (APP/PS1 mice [1]; [4]): ~114% | probe test, % of time spent in target quadrant (TQ) (APP/PS1 mice [1]; [5]): 32.25±0.58% | time in TQ as % of vehicle-treated WT littermates (APP/PS1 mice [1]; [5]): ~97% | probe test, % of time spent in target quadrant (TQ) (APP/PS1 mice [1]; [6]): 33.35±1.38% | time in TQ as % of vehicle-treated WT littermates (APP/PS1 mice [1]; [6]): ~100% | Morris water maze, time to find the hidden platform (APP/PS1 mice [1]; [7]): 25.64 ± 3.16 s | time to platform as % of vehicle-treated WT mice (APP/PS1 mice [1]; [7]): ~89% | minimum concentration needed to improve performance with the MWM (APP/PS1 mice [1]; [8]): 3 mg/kg | minimum concentration needed to improve performance with the probe trial (APP/PS1 mice [1]; [8]): 3 mg/kg | cGMP concentration in the hippocampus (cGMP): ~2.5 µM | minimum time needed for a positive effect on Aβ40 levels ([2]; 3 mg/kg at 3 months of age, measured at 7-8 months): 3 weeks | minimum time needed for a positive effect on Aβ40 ([2]; 3 mg/kg, measured immediately after treatment): 2 weeks | minimum effective dose that decreases Aβ40 and Aβ42 levels ([2]; 3-month-old APP/PS1): 3 mg/kg | Aβ40 as % of vehicle-treated APP/PS1 mice [2, 9]: ~64% | Aβ40 level [2, 9]: 1.71±0.22 ng/mg cortex | Aβ42 as % of vehicle-treated APP/PS1 mice [2, 9]: ~80% | Aβ42 level [2, 9]: 3.56±0.23 ng/mg cortex | effect on Aβ levels in words ([2]; APP/PS1, 1.5 mg/kg for 3 weeks): did not decrease Aβ levels | Aβ40 as % of vehicle-treated APP/PS1 mice [2, 10]: ~65% | Aβ40 level [2, 10]: 49.59±7.93 ng/mg cortex | Aβ42 as % of vehicle-treated APP/PS1 mice [2, 10]: ~73% | Aβ42 level [2, 10]: 32.55±3.27 ng/mg cortex | minimum effective dose that decreases Aβ40 and Aβ42 levels ([2]; treated at 3 months, measured at 7-10 months): 3 mg/kg | minimum time needed for a positive effect on BST (APP/PS1 mice [3]; [11]): 2 weeks | minimum time needed for a positive effect on LTP (APP/PS1 mice [3]; [11]): 2 weeks | BST, fEPSP slope (APP/PS1 mice [3]; [12]): 1.03±0.12 V/sec. | BST, fEPSP slope as % of vehicle-treated APP/PS1 mice (APP/PS1 mice [3]; [12]): ~160% | LTP as % of sildenafil-treated WT mice (APP/PS1 mice [3]; [12]): ~100% | LTP, % of baseline at 120 min (APP/PS1 mice [3]; [12]): 233.81±30.47% | BST, fEPSP slope (APP/PS1 mice [3]; [13]): 1.01±0.12 V/sec. | BST, slope of input-output curve as % of vehicle-treated WT mice (APP/PS1 mice [3]; [13]): ~94% | LTP as % of vehicle-treated mice (APP/PS1 mice [3]; [13]): ~112% | LTP, % of baseline (APP/PS1 mice [3]; [13]): 234.67±17.19% | minimum concentration needed to improve BST (APP/PS1 mice [3]; [14]): 3 mg/kg | minimum concentration needed to improve LTP (APP/PS1 mice [3]; [14]): 3 mg/kg
